pIC50: −log10 of the molar value.
Key:
[1] = tested on: TRPA1 agonist-induced ear edema; assay: Topical PD model: AITC (TRPA1 agonist)-induced ear edema; assay type: in vivo, mouse; conditions: topical 1% or 3% in acetone, 1 h before 6% AITC, measured during 6 hours
Experimental: Test antagonists B to D were formulated at 1% or 3% in an acetone vehicle, applied to the mouse ear skin (10 μl/ear both faces) and left for 1 hour. Then, 10 μl of a 6% solution of allyl isothiocyanate (AITC) in acetone (vehicle 001) was applied to the same location, and ear thickness was measured at TO, 30 min, 1 h, 2 h, 4 h and 6 h. A topical pharmacodynamics (PD) model was designed in mouse, in which test antagonists B to D were formulated at 1% or 3% in an acetone vehicle, applied to the ear skin and left for 1 hour. After this time, a 6% solution of allyl isothiocyanate (AITC), a TRPA1 agonist, in acetone (vehicle 001) was then applied to the same location and ear edema (via the ear thickness) was measured during 6 hours.

mouse AD-patch model = assay: AD-patch model (DERP epicutaneous sensitization); assay type: in vivo; conditions: topical 1% in acetone, days 44, 47 and 50; for epidermis thickness, change / inflammatory scores, change: day 51 histology; for TEWL-increase, change: measured day 51
Experimental: Female Balb/c mice were treated with Dermatophagoïdes pteronyssinus (DERP) allergen in 3 cycles of epicutaneous sensitization (patch) on abdominal skin with 2 patches applied twice weekly followed by 2 weeks of rest, during 7 weeks. Antagonists B or D were formulated at 1% in an acetone vehicle, applied to the sensitized-skin 2 hours before DERP-patches installation. Topical treatments with antagonists or a corticosteroid (used as a control) were only performed 3 times in the 3rd and last week of sensitization (at days 44, 47 and 50).
TEWL is measured the last day (Day 51) according to the protocol of FIG. 2.
On day 51, animals are sacrificed and skin is removed and fixed in formalin followed by embedment in paraffin, sectioning and staining with hematoxylin and eosin. Epidermis thickness is measured by averaging the values of measurements of five independent fields of view.
On day 51, animals are sacrificed and skin is removed and fixed in formalin followed by embedment in paraffin, sectioning and staining with hematoxylin and eosin. Inflammation score is quantified by averaging the values of 10 random fields of view per sample, scored for inflammation with a gradient (semi-quantitative scoring from 0 to 5).
At day 51, gene expression of IL4 cytokine is quantified after RNA extraction from skin, RNA retro transcription and PCR using the TaqMan® Universal MasterMix of Applied Biosystem. cDNA of mice of group Vehicle 001 are used as comparator.
At day 51, gene expression of TSLP cytokine is quantified after RNA extraction from skin, RNA retro transcription and PCR using the TaqMan® Universal MasterMix of Applied Biosystem. cDNA of mice of group Vehicle 001 are used as comparator.
AD inflammatory response was induced by epicutaneous sensitization with patches soaked with 100 μg of allergen in sterile saline (Dermatophagoïdes pteronyssinus or DERP) or with vehicle applied on abdominal skin 24 h after shaving and left on for three 1-wk periods (with patch renewal at midweek), with a 2-wk interval between applications. The presence of the patches and of a transparent occlusive dressing above, prevented licking, biting and scratching from mouse, therefore the inflammatory response in this model is not due to the scratch-itch cycle.
Antagonists B or D were formulated at 1% in an acetone vehicle, applied to the sensitized-skin 2 hours before DERP-patches installation. Topical treatments with antagonists or a corticosteroid (used as a control) were only performed 3 times in the 3rd and last week of sensitization (at days 44, 47 and 50).
At the time of the last patch removal (day 51), skin samples and blood were collected.
Skin was collected for histological, immunohistological analyses and real-time PCR after RNA extraction. Ig (IgE, and specific IgG) concentrations in serum were measured by ELISA

hTRPV3 = biological target: T1, hTRPV3 (Homo sapiens, UniProt Q8NET8); conditions: unit inferred; cited from earlier work
T1 sequence (Q8NET8 1-790): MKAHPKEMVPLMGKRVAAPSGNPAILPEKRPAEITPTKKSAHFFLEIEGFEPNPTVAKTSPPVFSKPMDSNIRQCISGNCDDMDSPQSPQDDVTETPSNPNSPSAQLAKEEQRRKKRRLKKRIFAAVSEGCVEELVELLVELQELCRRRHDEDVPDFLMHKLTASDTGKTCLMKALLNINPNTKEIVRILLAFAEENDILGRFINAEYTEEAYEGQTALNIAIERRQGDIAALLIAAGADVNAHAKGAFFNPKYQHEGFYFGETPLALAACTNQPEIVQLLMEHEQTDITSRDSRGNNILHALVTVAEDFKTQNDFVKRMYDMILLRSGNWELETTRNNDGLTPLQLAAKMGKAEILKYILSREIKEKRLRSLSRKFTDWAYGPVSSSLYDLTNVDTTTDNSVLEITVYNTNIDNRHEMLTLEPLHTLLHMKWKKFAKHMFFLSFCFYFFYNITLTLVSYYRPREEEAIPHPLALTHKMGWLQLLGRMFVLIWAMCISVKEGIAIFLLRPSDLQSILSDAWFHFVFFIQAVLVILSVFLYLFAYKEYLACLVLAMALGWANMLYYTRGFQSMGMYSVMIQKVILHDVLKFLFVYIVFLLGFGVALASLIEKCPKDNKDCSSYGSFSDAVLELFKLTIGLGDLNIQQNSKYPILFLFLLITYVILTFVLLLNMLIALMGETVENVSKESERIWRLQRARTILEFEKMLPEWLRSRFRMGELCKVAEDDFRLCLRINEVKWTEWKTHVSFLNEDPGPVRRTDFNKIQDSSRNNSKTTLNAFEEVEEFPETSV

[2] = tested on: imiquimod-induced psoriasiform skin inflammation; assay: Imiquimod (Aldara) psoriasiform model; assay type: in vivo, mouse; conditions: topical 1% in PG/EtOH twice daily, day 8
Experimental: The treatment protocol consists of a daily topical application of Aldara (3.18 mg of imiquimod) for 7 days on the shaved back skin of Balb/c mice. Compound C was dissolved in PG/EtOH at 1% and was applied twice daily 2 h before and 6 h after Aldara treatment. Corticosteroid was dissolved in acetone (Vehicle 001) at 0.01% and applied only 2 h before Aldara treatment. Epidermis thickness is then measured at day 8 according to the protocol of FIG. 3. […] Indeed, it induces inflamed scaly skin lesions resembling psoriasis plaques. […] IMQ induced epidermal expression of IL-23, IL-17A, and IL-17F, as well as an increase in splenic Th17 cells (J Immunol. 2009 May 1; 182(9):5836-45). Mice received a daily topical dose of 63.5 mg (14 μl) of commercially available IMQ cream (5%) (Aldara; 3M Pharmaceuticals) on the shaved back skin for 7 consecutive days.

[3] = cited from earlier work
pain models = conditions: cited from earlier work
rTRPA1 = rTRPA1 (Rattus norvegicus, UniProt Q6RI86); conditions: cited from earlier work
rTRPA1, sequence (Q6RI86 whole entry): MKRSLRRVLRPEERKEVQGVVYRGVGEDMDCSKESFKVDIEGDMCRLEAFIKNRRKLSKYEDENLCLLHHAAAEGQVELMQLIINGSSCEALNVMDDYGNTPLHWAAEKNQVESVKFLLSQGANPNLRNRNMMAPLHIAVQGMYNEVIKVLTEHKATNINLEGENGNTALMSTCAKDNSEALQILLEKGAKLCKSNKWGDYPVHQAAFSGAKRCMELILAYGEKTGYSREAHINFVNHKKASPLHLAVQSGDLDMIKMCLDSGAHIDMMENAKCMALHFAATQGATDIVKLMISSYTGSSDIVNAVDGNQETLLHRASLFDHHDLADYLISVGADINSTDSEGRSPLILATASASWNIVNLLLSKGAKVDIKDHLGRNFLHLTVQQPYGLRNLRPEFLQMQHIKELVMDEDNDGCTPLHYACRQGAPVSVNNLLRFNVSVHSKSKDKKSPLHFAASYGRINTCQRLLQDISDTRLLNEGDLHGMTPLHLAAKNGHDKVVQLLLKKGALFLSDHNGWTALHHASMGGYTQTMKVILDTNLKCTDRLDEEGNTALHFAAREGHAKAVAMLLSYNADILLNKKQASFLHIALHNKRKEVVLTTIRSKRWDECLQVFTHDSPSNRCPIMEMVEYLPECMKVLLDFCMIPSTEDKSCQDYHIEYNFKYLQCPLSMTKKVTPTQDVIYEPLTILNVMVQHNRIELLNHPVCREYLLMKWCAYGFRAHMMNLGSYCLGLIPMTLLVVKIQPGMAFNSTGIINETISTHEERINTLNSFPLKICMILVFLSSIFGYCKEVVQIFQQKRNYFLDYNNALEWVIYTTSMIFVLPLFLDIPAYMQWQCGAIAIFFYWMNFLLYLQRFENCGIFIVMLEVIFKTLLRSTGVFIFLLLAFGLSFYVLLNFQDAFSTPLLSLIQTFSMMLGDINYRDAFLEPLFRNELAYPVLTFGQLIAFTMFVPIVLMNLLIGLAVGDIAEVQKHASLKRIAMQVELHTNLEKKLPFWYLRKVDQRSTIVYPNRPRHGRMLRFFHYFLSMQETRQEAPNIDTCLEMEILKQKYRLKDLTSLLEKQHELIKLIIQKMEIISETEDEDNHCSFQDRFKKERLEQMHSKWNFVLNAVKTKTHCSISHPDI

hTRPA1 = hTRPA1 (Homo sapiens, UniProt O75762); conditions: value in μM; cited from earlier work
hTRPA1, sequence (O75762 whole entry): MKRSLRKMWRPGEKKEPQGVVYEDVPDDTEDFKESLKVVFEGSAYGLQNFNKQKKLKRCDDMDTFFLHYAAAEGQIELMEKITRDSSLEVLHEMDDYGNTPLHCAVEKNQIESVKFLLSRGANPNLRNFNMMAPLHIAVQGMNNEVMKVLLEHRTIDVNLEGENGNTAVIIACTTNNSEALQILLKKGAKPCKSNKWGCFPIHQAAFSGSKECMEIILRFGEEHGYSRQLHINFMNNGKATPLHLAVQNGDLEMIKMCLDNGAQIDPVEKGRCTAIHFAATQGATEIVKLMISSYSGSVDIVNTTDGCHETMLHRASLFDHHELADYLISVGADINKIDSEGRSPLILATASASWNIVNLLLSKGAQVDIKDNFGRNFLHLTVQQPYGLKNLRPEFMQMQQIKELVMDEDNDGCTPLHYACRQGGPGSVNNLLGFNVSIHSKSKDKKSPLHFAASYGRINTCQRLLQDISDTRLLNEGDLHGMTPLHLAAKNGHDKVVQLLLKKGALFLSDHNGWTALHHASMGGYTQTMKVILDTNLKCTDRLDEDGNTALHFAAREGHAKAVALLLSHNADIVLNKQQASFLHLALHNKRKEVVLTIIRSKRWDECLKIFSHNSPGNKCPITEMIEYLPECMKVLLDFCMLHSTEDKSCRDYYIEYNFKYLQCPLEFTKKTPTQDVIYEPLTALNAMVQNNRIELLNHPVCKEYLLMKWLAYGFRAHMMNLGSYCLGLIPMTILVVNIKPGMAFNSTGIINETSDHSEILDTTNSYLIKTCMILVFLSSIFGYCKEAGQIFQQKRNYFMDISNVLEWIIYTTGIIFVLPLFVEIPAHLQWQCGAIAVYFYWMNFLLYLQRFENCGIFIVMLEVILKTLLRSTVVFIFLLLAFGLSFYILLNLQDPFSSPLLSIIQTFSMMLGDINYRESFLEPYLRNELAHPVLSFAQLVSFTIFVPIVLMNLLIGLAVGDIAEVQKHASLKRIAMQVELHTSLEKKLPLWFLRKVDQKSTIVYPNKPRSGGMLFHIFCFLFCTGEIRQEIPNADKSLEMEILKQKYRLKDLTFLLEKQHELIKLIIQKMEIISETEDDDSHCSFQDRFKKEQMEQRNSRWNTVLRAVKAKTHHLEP

Row | Structure (SMILES) | TRPA1 agonist-induced ear edema (ear thickness) [1] | epidermis thickness, change (mouse AD-patch model) [%] | inflammatory scores, change (mouse AD-patch model) [%] | TEWL-increase, change (mouse AD-patch model) [%] | pIC50 (hTRPV3) | IL-17 production by yO T cells (IL17f mRNA) [2] | imiquimod-induced epidermis thickness increase [2] | oral bioavailability described in rat [3] | Efficacy described in pain model (ip) (pain models; ip) | pIC50 (rTRPA1) | IC50 (hTRPA1) [µM] | Efficacy described in pain models in rat (pain models; rat)
1 | Cc1cc2[nH]ncc2cc1-c1ccccc1C(F)(F)F [compound B] | decreased | −32 | −27 | −54 | < 4.52 |  |  |  |  |  |  | 
2 | FC(F)(F)c1ccccc1-c1cc2cn[nH]c2cc1OCC1CC1 [compound C] | decreased |  |  |  | < 4.52 | did not significantly reduce | did not significantly reduce | Low oral | Efficacy |  |  | 
3 | CCC(C)c1ccc(NC(=O)Cn2cnc3c2c(=O)n(C)c(=O)n3C)cc1 (stereo not drawn) [compound D, reference compound] | decreased | −26 | −32 | −60 |  |  |  |  |  | 6.64 | 14 to 18 | Efficacy
